Laboratory results from a melting point compilation (Tetko et al.; mined from patent text by program, amines drawn as free bases though some values may be those of a salt).

Compound | melting point [°C]
Cc1nc2c(c3c1[nH]c1ccccc13)C(=NO)CC(C)(C)C2 | 293 to 294
O=C1OC(=O)c2c1ccc1ccc3ccccc3c21 | 245
Cc1c(C)c2c(c(C)c1OC(=O)c1ccccc1)SC(C)O2 (stereo not given) | 100 to 102
Cc1cc(Cl)ccc1-c1cc(Cl)cc2c1NC(CN)CO2 (stereo not given) | 102
CN(C1CCN(C(=O)OC(C)(C)C)CC1)S(=O)(=O)c1ccc(Nc2nccc(Nc3ccc(F)cc3)n2)cc1 | 174 to 176
CC(C)CN1C(=O)N(C)C2(NC(=O)NC2=O)c2cc(Cl)ccc21 (stereo not given) | 118
COc1cc(Sc2ccccc2CCl)ccc1Cl | 57 to 59
COc1nc(C)c(C(C)=O)cc1NC(=O)N1CCN(c2cc(C)cc(C)c2)CC1 | 66 to 69
Cc1cc(C(=O)N2Cc3ccccc3Cc3ccccc32)ccc1N | 203 to 204
O=C(NCc1ccc(Cl)cc1)c1cn2c3c(cc(CN4CCOCC4)cc3c1=O)OC(c1ccccc1O)C2 (stereo not given) | 239
CCCC12CCC3C4CCC(=O)C=C4CCC3C1CCC2O (stereo not given) | 126 to 127
N[C@@]1(C(=O)O)C[C@H](NC(=O)Nc2cccc(F)c2)[C@H]2[C@H](C(=O)O)[C@H]21 (relative stereo) | > 250
Cn1c2ccccc2c(=O)c2c(-c3ccccc3NC(=O)C(C)(C)C)cccc21 | 160 to 162
O=C1CCC(O)(c2ccc(F)c(F)c2)CC1 | 84 to 85
COc1ccc(Oc2c(-c3ccc(S(C)(=O)=O)cc3)cnn(CC(F)(F)F)c2=O)cc1 | 194 to 195
CCCCCCCCCCc1cccc(C(=O)N(O)CCCC(=O)O)c1 | 77 to 79
O=C(O)c1cc(=O)c(OCc2ccccc2)c(-c2ccccc2)o1 | 161 to 170
CNc1nc(-c2cc(F)cc(F)c2)nc2nc(-c3ccco3)nn12 | 231 to 234
CC(=O)OC(Cn1cncn1)c1ccc(Cl)cc1Cl (stereo not given) | 92 to 96
COC(=O)CCc1ccc(Sc2ccccc2C(=O)O)c([N+](=O)[O-])c1 | 160 to 161

Compound | melting point [°C]
O=C1OC(CCOc2cccc3ccccc23)C(O)=C1O (stereo not given) | 163 to 164
CCOC(=O)CCc1ccc(C)nc1 | 36 to 37
COC(=O)CCc1ccc(O)c(C(C)(C)C)c1 | 59 to 61
CCCc1nn(-c2ccc(C(F)(F)F)cn2)cc1CCCOc1ccc(CC(=O)O)c(OC)c1 | 135 to 136
O=C1CCC(O)(c2ccc(F)cc2)CC1 | 108 to 114
CCOC(=O)n1c(SC(F)(F)C(F)F)nc(-c2ccccc2)c1-c1ccccc1 | 126 to 127
CC1(C)Cc2ccccc2C1c1cncnc1SCc1cccc(F)c1 (stereo not given) | 60 to 62
Cc1cc(I)ccc1-n1c(C(F)(F)F)nn(C)c1=S | 104 to 107
O=[N+]([O-])c1ccc(-c2ccc(CCl)o2)cc1 | 97 to 99
Cc1ccc(S(=O)(=O)N[C@@H]2CCCC[C@H]2N)cc1 (relative stereo) | 93 to 95
O=S(=O)(O)c1ccc(Oc2ccc(-n3ccnc3)cc2)cc1 | 80
CC(=O)C1=CCC2C3CCC4CC(O)CCC4(C)C3CC(O)C12C (stereo not given) | 203 to 205
CCCc1ccc(CCCOc2c(C)cc(-c3nnn(C)n3)cc2C)nn1 | 78 to 80
Clc1c(CBr)ccc2cc(CBr)ccc12 | 127 to 129
CCOC(=O)C1=CC(C(=O)c2cc(Cl)ccc2O)=CN2CCc3c([nH]c4ccccc34)C12C(=O)OCC (stereo not given) | 216
CSC(=S)C1(c2ccccn2)CCCCS1 (stereo not given) | 79
COc1cccc(CC(=O)O)c1OCc1cc(OCc2ccc3ccccc3n2)n(C(C)C)n1 | 84 to 85
O=C1CCCCN1S(=O)(=O)c1ccc(N2CCCCCC2)cc1 | 85 to 88
CCCc1nc2c(N)nc(C)c(C)c2n1CCCS(=O)(=O)c1ccc(Cl)cc1 | 186 to 188
COc1ccc(C=NO)cc1C | 70 to 72
